Results from article PMC13254535, “The RecBCD complex interacts directly with the DNA sliding clamp in Escherichia coli” (Nucleic Acids Research, 2026).
Residues, ends and D or L forms follow the SMILES beside them.

Tests used:
Assay type in all cases: binding
Design in all cases: made in house
[1] = molecular target: T1, β-clamp (Escherichia coli, UniProt P0A988); test: 2D TROSY-1H-15N-HSQC chemical shift perturbation of β-clamp; conditions: 140 µM 2H,13C,15N-labeled β-clamp, 700 µM peptide (five-fold molar excess); 37°C; 20 mM sodium phosphate, 100 mM NaCl, 5 mM DTT, 2% DMSO, pH 7.4
Protocol: (§1) Unlabeled and ^2H, ^13C, ^15N-labeled E. coli β-clamp was expressed and purified as previously described. The β-clamp concentration was determined by absorbance at 280 nm measured on a NanoDrop ND-1000 spectrophotometer (Thermo Fisher Scientific Inc.) and using an extinction coefficient calculated by the Expasy ProtParam web tool (https://web.expasy.org/protparam/). All β-clamp concentrations are listed as the protomer concentration. The peptides were readily soluble at micromolar concentration, although at high micromolar concentrations, we cannot rule out the presence of aggregates.
2D TROSY-^1H-^15N-HSQC (Two-Dimensional Transverse Relaxation Optimized Spectroscopy Heteronuclear Single Quantum Coherence experiment correlating ^1H and ^15N nuclei) spectra were recorded of 140 µM ^2H, ^13C, ^15N-labeled β-clamp with and without the addition of 700 µM RecB nuclease motif peptide ([…]) in 20 mM sodium phosphate, 100 mM NaCl, 5 mM DTT, 5% (v/v) D2O, 125 µM DSS, 2% (v/v) DMSO, pH 7.4. […] The samples were transferred to 5-mm Shigemi tubes, and the NMR spectra were recorded at 37°C on a Bruker Avance III 750 MHz spectrometer equipped with a cryoprobe. […] The spectra were processed in Topspin (Bruker) and analyzed in CcpNmr Analysis. […] Chemical shift perturbations (CSPs) were calculated using the following equation [57]: […]

[2] = molecular target: T1, β-clamp; test: Saturation transfer difference (STD)-NMR of peptides with β-clamp; conditions: 150 µM peptide, 1.5 µM β-clamp; 25°C; 20 mM sodium phosphate, 100 mM NaCl, 5 mM DTT, 0.3% DMSO, 5% D2O, pH 7.4; 600 MHz
Protocol: All peptides, except Pol III C-terminal ([sequence]), were N-terminally acetylated and C-terminally amidated to remove charges in the N-and C-termini, not present in the context of the full-length proteins.
Unlabeled and ^2H, ^13C, ^15N-labeled E. coli β-clamp was expressed and purified as previously described [54]. The β-clamp concentration was determined by absorbance at 280 nm measured on a NanoDrop ND-1000 spectrophotometer (Thermo Fisher Scientific Inc.) and using an extinction coefficient calculated by the Expasy ProtParam web tool (https://web.expasy.org/protparam/) [55]. All β-clamp concentrations are listed as the protomer concentration. The peptides were readily soluble at micromolar concentration, although at high micromolar concentrations, we cannot rule out the presence of aggregates.
Saturation transfer difference (STD)-nuclear magnetic resonance (NMR) experiments were performed at 25°C on a Bruker Avance III HD 600 MHz NMR spectrometer equipped with a 5-mm QCI Cryoprobe. […] Samples were transferred to 5-mm NMR tubes.

[3] = molecular target: T1, β-clamp; test: Isothermal titration calorimetry (ITC), β-clamp titrated into peptide; conditions: 25°C; pH 7.4; one-site model; n = 3; affected by inaccurate peptide concentration and methionine oxidation
Protocol: as §1
Unlabeled β-clamp was buffer-exchanged into 20 mM sodium phosphate, 100 mM NaCl, 1 mM tris(2-carboxyethyl)phosphine (TCEP), pH 7.4 using a 15-ml spin filter (10 000 MWCO) (Millipore, Darmstadt, Germany). DMSO was added to the β-clamp sample to a final concentration of 0.02% (v/v). RecB nuclease motif peptide ([…]) (dissolved in 100% DMSO) was diluted into the same buffer as above, with a final DMSO concentration of 0.02% (v/v). […] The isothermal titration calorimetry (ITC) experiments were repeated three times and were recorded at 25°C on a Malvern MicroCal PEAQ-ITC instrument (Malvern, Worcestershire, United Kingdom) using a stir speed of 750 rpm. […]

T1 sequence (P0A988 whole entry): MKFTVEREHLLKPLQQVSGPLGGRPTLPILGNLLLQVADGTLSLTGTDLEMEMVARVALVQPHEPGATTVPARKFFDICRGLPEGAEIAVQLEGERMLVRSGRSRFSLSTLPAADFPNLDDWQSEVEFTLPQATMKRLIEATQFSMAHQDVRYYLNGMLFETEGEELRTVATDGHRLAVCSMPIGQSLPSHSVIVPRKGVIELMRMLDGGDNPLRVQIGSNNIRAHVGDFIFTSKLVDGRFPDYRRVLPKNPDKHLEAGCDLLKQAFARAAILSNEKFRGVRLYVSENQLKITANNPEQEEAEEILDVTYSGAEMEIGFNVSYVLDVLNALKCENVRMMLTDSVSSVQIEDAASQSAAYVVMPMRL

`CSCC[C@H](NC(=O)[C@H](CCC(=O)O)NC(=O)[C@@H](NC(=O)[C@H](CCC(N)=O)NC(=O)[C@H](CCCCN)NC(C)=O)C(C)C)C(=O)N[C@@H](CCC(=O)O)C(=O)N[C@@H](Cc1ccccc1)C(=O)N[C@@H](Cc1ccc(O)cc1)C(N)=O` [QVEMEF] (Ac-KQVEMEFY-NH2) was tested, and the “chemical shift perturbations (CSPs) of β-clamp residues” value [1] was “The largest CSPs localized to residues surrounding the canonical CBM binding pocket, including L177, Y244, V247, I317, S345, Q348, V361, M364, and R365”, the STD-NMR binding [2] was “shows a distinct STD signal, indicating specific interaction” and the “N-value (stoichiometry)” value [3] was 0.39 ± 0.02.
